Active and inactive are the calls of the source. The calls are words filed in the database; no cut-off is given here.
Assays:
RBL-2H3 [1] = experiment: Cytotoxicity against Wistar rat RBL-2H3 cells assessed as cell viability at 1 uM incubated for 24 hrs by MTT assay; assay type: functional; details: read-out: Activity
RBL-2H3 [2] = experiment: Cytotoxicity against Wistar rat RBL-2H3 cells assessed as cell viability at 5 uM incubated for 24 hrs by MTT assay; assay type: functional; details: read-out: Activity
RBL-2H3 [3] = experiment: Cytotoxicity against Wistar rat RBL-2H3 cells assessed as cell viability at 25 uM incubated for 24 hrs by MTT assay; assay type: functional; details: read-out: Activity
RBL-2H3 [4] = experiment: Cytotoxicity against Wistar rat RBL-2H3 cells assessed as cell viability at 125 uM incubated for 24 hrs by MTT assay; assay type: functional; details: read-out: Activity
[5] = molecular target: Sodium-dependent serotonin transporter (Rattus norvegicus) (UniProt P31652); experiment: Inhibition of SERT in Wistar rat RBL-2H3 cells assessed as decrease in fluorescence intensity at 10 uM preincubated for 2 hrs followed by APP+ addition and measured after 1 hr by fluorescence based assay; assay type: cell-based; details: time 3.0 hrs
Chain of Sodium-dependent serotonin transporter (Rattus norvegicus) (P31652 whole entry): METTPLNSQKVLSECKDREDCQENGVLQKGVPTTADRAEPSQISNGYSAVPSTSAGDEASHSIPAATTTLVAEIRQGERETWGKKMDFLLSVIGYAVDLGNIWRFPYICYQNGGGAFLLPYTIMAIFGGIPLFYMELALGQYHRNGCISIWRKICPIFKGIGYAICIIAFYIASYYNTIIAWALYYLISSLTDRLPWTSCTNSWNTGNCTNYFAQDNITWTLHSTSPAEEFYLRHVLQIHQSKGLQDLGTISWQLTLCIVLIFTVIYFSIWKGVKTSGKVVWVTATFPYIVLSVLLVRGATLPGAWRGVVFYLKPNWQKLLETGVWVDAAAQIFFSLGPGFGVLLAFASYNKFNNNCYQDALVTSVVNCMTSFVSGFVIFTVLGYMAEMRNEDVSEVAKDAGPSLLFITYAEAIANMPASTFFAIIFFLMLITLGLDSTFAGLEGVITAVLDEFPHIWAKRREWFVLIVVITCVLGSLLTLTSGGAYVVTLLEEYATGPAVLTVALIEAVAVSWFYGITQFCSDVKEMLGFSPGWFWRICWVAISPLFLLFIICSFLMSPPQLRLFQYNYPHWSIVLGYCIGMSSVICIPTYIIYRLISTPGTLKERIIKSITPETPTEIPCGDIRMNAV

CHO-K1 [6] = experiment: Agonist activity at mu opioid receptor in CHO-K1 cells assessed as increase in intracellular fluorescence intensity at 50 uM incubated for 90 sec by microplate reader assay; assay type: cell-based; details: Cricetulus griseus
CHO-K1 [7] = experiment: Antagonist activity at mu opioid receptor in CHO-K1 cells assessed as intracellular fluorescence intensity at 50 uM incubated for 2 mins by microplate reader assay; assay type: cell-based; details: Cricetulus griseus
CHO-K1 [8] = experiment: Agonist activity at CCK-B receptor in CHO-K1 cells incubated for 90 sec by microplate reader assay; assay type: cell-based; details: Cricetulus griseus
CHO-K1 [9] = experiment: Antagonist activity at CCK-B receptor in CHO-K1 cells at 50 uM incubated for 90 sec by microplate reader assay; assay type: cell-based; details: Cricetulus griseus
Mus musculus [10] = experiment: Antidepressant activity in C57BL/6J mouse assessed as reduction in CRS induced body weight loss at 10 mg/kg, po administered as prophylactic dose and measured upto 28 days; assay type: functional, organism-based; details: time <= 28.0 day
Mus musculus [11] = experiment: Antidepressant activity in C57BL/6J mouse assessed as reduction in CRS induced body weight loss at 10 to 50 mg/kg, po pretreated with CRS for 14 days followed by compound addition on day 15 and measured upto 28 days; assay type: functional, organism-based; details: dose 10-50 mg/kg, time <= 28.0 day
Mus musculus [12] = experiment: Antidepressant activity in chronic restraint stress induced C57BL/6J mouse model assessed as increase the time in center zone at 10 mg/kg, po administered as prophylactic dose and measured on day 29 by open field test; assay type: functional, organism-based; details: time 29.0 day
Mus musculus [13] = experiment: Antidepressant activity in chronic restraint stress induced C57BL/6J mouse model assessed as increase the time in center zone at 10 to 50 mg/kg, po pretreated with CRS for 14 days followed by compound addition on day 15 and measured after 29 days by open field test; assay type: functional, organism-based; details: dose 10-50 mg/kg, time 29.0 day
Mus musculus [14] = experiment: Antidepressant activity in chronic restraint stress induced C57BL/6J mouse model assessed as increase in total distance in center zone at 10 mg/kg, po administered as prophylactic dose and measured on day 29 by open field test; assay type: functional, organism-based; details: time 29.0 day
Mus musculus [15] = experiment: Antidepressant activity in chronic restraint stress induced C57BL/6J mouse model assessed as increase in total distance in center zone at 10 to 50 mg/kg, po pretreated with CRS for 14 days followed by compound addition on day 15 and measured after 29 days by open field test; assay type: functional, organism-based; details: dose 10-50 mg/kg, time 29.0 day
Mus musculus [16] = experiment: Antidepressant activity in chronic restraint stress induced C57BL/6J mouse model assessed as increase in latency entries into center zone at 10 mg/kg, po administered as prophylactic dose and measured on day 29 by open field test; assay type: functional, organism-based; details: time 29.0 day
Mus musculus [17] = experiment: Antidepressant activity in chronic restraint stress induced C57BL/6J mouse model assessed as increase in latency entries into center zone at 10 to 50 mg/kg, po pretreated with CRS for 14 days followed by compound addition on day 15 and measured after 29 days by open field test; assay type: functional, organism-based; details: dose 10-50 mg/kg, time 29.0 day
Mus musculus [18] = experiment: Antidepressant activity in chronic restraint stress induced C57BL/6J mouse model assessed as reduction in immobility time at 10 mg/kg, po administered as prophylactic dose and measured on day 30 by force swimming test; assay type: functional, organism-based; details: time 30.0 day
Mus musculus [19] = experiment: Antidepressant activity in chronic restraint stress induced C57BL/6J mouse model assessed as reduction in immobility time at 10 to 50 mg/kg, po pretreated with CRS for 14 days followed by compound addition on day 15 and measured after 30 days by force swimming test; assay type: functional, organism-based; details: dose 10-50 mg/kg, time 30.0 day
Mus musculus [20] = experiment: Antidepressant activity in chronic restraint stress induced C57BL/6J mouse model assessed as increase in time in open arm at 10 mg/kg, po administered as prophylactic dose and measured on day 31 by elevated plus maze test; assay type: functional, organism-based; details: time 31.0 day
Mus musculus [21] = experiment: Antidepressant activity in chronic restraint stress induced C57BL/6J mouse model assessed as increase in time in open arm at 10 to 50 mg/kg, po pretreated with CRS for 14 days followed by compound addition on day 15 and measured after 31 days by elevated plus maze test; assay type: functional, organism-based; details: dose 10-50 mg/kg, time 31.0 day
Mus musculus [22] = experiment: Antidepressant activity in chronic restraint stress induced C57BL/6J mouse model assessed as increase in distance in open arm at 10 mg/kg, po administered as prophylactic dose and measured on day 31 by elevated plus maze test; assay type: functional, organism-based; details: time 31.0 day
Mus musculus [23] = experiment: Antidepressant activity in chronic restraint stress induced C57BL/6J mouse model assessed as increase in distance in open arm at 10 to 50 mg/kg, po pretreated with CRS for 14 days followed by compound addition on day 15 and measured after 31 days by elevated plus maze test; assay type: functional, organism-based; details: dose 10-50 mg/kg, time 31.0 day
Mus musculus [24] = experiment: Antidepressant activity in chronic restraint stress induced C57BL/6J mouse model assessed as increase in entries in open arm at 10 mg/kg, po administered as prophylactic dose and measured on day 31 by elevated plus maze test; assay type: functional, organism-based; details: time 31.0 day
Mus musculus [25] = experiment: Antidepressant activity in chronic restraint stress induced C57BL/6J mouse model assessed as increase in entries in open arm at 10 to 50 mg/kg, po pretreated with CRS for 14 days followed by compound addition on day 15 and measured after 31 days by elevated plus maze test; assay type: functional, organism-based; details: dose 10-50 mg/kg, time 31.0 day
Mus musculus [26] = experiment: Antidepressant activity in chronic restraint stress induced C57BL/6J mouse model assessed as increase in 5-HT level in prefrontal cortex at 10 mg/kg, po administered as prophylactic dose by ELISA; assay type: functional, organism-based
Mus musculus [27] = experiment: Antidepressant activity in chronic restraint stress induced C57BL/6J mouse model assessed as increase in 5-HT level in prefrontal cortex at 10 to 50 mg/kg, po pretreated with CRS for 14 days followed by compound addition on day 15 by ELISA; assay type: functional, organism-based; details: dose 10-50 mg/kg
Mus musculus [28] = experiment: Antidepressant activity in chronic restraint stress induced C57BL/6J mouse model assessed as increase in hippocampus TPH2 protein expression at 10 mg/kg, po administered as prophylactic dose by Western blotting analysis; assay type: functional, organism-based
Mus musculus [29] = experiment: Antidepressant activity in chronic restraint stress induced C57BL/6J mouse model assessed as rescue of normal neurons at 10 mg/kg, po administered as prophylactic dose by Nissl staining based optical microscopic assay; assay type: functional, organism-based
Mus musculus [30] = experiment: Antidepressant activity in chronic restraint stress induced C57BL/6J mouse model assessed as rescue of normal neurons at 10 to 50 mg/kg, po pretreated with CRS for 14 days followed by compound addition on day 15 by Nissl staining based optical microscopic assay; assay type: functional, organism-based; details: dose 10-50 mg/kg
Mus musculus [31] = experiment: Antidepressant activity in chronic restraint stress induced C57BL/6J mouse model assessed as increase in Bcl2/Bax level at 10 mg/kg, po administered as prophylactic dose by Western blotting assay; assay type: functional, organism-based
Mus musculus [32] = experiment: Antidepressant activity in chronic restraint stress induced C57BL/6J mouse model assessed as increase in spinophilin positive cells in cortex at 10 mg/kg, po administered as prophylactic dose by immunohistochemistry assay; assay type: functional, organism-based
Mus musculus [33] = experiment: Antidepressant activity in chronic restraint stress induced C57BL/6J mouse model assessed as increase in spinophilin positive cells in cortex at 10 to 50 mg/kg, po pretreated with CRS for 14 days followed by compound addition on day 15 by immunohistochemistry assay; assay type: functional, organism-based; details: dose 10-50 mg/kg
Mus musculus [34] = experiment: Antidepressant activity in chronic restraint stress induced C57BL/6J mouse model assessed as increase in BDNF expression level at 10 mg/kg, po administered as prophylactic dose by Western blotting assay; assay type: functional, organism-based
Mus musculus [35] = experiment: Antidepressant activity in chronic restraint stress induced C57BL/6J mouse model assessed as increase in TrkB expression level at 10 mg/kg, po administered as prophylactic dose by Western blotting assay; assay type: functional, organism-based
Mus musculus [36] = experiment: Antidepressant activity in chronic restraint stress induced C57BL/6J mouse model assessed as increase in PSD-95 expression level at 10 mg/kg, po administered as prophylactic dose by Western blotting assay; assay type: functional, organism-based

## CCN(CC)CC1(c2ccc(Cl)cc2)OC(=O)c2ccccc21 (stereo unspecified)
RBL-2H3 [1]
  viability at 1 µM: 105%
RBL-2H3 [2]
  viability at 5 µM: 107%
RBL-2H3 [3]
  viability at 25 µM: 117%
RBL-2H3 [4]
  viability at 125 µM: 132%
[5]
  Activity: Active; Activity Stronger Than Fluoxetine
CHO-K1 [6]
  Activity: inactive
CHO-K1 [7]
  Activity: inactive
CHO-K1 [8]
  Activity: inactive
CHO-K1 [9]
  Activity: inactive
Mus musculus [10]
  Activity: Active
Mus musculus [11]
  Activity: Active
Mus musculus [12]
  Activity: Active
Mus musculus [13]
  Activity: Active
Mus musculus [14]
  Activity: Active
Mus musculus [15]
  Activity: Active
Mus musculus [16]
  Activity: Active
Mus musculus [17]
  Activity: Active
Mus musculus [18]
  Activity: Active
Mus musculus [19]
  Activity: Active
Mus musculus [20]
  Activity: Active
Mus musculus [21]
  Activity: Active
Mus musculus [22]
  Activity: Active
Mus musculus [23]
  Activity: Active
Mus musculus [24]
  Activity: Active
Mus musculus [25]
  Activity: Active
Mus musculus [26]
  Activity: Active
Mus musculus [27]
  Activity: Active
Mus musculus [28]
  Activity: Active
Mus musculus [29]
  Activity: Active
Mus musculus [30]
  Activity: Active
Mus musculus [31]
  Activity: Active
Mus musculus [32]
  Activity: Active
Mus musculus [33]
  Activity: Active
Mus musculus [34]
  Activity: Active
Mus musculus [35]
  Activity: Active
Mus musculus [36]
  Activity: Active

Source: ChEMBL document CHEMBL6083255, “Synthesis and biological evaluation of novel isobenzofuran-1(3H)-one derivatives as antidepressant agents” (2024)
